Entries after “also recorded” stand apart in the source; their conditions may differ. Read-outs that look alike come from different tables or passages of the source. Values belong to the compound of their own block, whether it stands above or below them.
Tests used:
BTK [1] = target: T1, BTK (Homo sapiens, UniProt Q06187); assay: biochemical; design: HTS: BTK preincubated 15 min with compound, then chemiluminescent covalent probe 3l; loss of luminescence at 30 min; settings: 0.75 uM BTK, 1.5 uM probe 3l, 15 min preincubation
ERBB2 = ERBB2 (Homo sapiens, UniProt P04626); assay: In vitro kinase activity assay (Nanosyn)
BTK kinase domain = BTK kinase domain (Homo sapiens, UniProt Q06187); assay: Kinetic labeling of BTK by intact protein LC/MS; assay type: binding
primary mouse B cells = assay: B-cell response experiment (anti-IgM activation, CD86 by flow cytometry); assay type: cell-based; settings: representative FACS plot, concentration not given
ITK = target: T2, ITK (Homo sapiens, UniProt Q08881); assay: In vitro kinase activity assay (Nanosyn)
T2 sequence (Q08881 1-620): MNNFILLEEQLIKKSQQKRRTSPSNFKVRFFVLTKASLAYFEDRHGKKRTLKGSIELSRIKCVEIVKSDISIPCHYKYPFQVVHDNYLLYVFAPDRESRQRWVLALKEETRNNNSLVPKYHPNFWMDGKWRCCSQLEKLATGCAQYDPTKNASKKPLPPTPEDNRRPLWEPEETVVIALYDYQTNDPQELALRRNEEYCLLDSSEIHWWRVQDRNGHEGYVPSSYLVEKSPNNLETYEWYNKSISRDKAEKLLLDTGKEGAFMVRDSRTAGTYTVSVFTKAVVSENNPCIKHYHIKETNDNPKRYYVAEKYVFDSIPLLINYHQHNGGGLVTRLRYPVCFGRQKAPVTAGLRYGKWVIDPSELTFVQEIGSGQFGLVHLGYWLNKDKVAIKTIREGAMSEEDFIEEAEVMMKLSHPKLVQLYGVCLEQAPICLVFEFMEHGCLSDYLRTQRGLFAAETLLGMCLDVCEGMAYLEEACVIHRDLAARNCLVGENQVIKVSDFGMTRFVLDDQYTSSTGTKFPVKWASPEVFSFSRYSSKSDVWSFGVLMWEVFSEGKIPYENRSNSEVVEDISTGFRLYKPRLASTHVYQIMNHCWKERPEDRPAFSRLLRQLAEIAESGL

[2] = GSH reactivity assay for ibrutinib derivatives (LC/MS); assay type: physicochemical; settings: 5 mM GSH in phosphate buffer/DMF 9:1, 100 μM compound, buffer pH 8.0:DMF 9:1, 37 °C
wild-type BTK = wild-type BTK (Homo sapiens, UniProt Q06187); assay: In vitro kinase activity assay (Nanosyn)
BMX = target: T3, BMX (Homo sapiens, UniProt P51813); assay: In vitro kinase activity assay (Nanosyn)
T3 sequence (P51813 1-675): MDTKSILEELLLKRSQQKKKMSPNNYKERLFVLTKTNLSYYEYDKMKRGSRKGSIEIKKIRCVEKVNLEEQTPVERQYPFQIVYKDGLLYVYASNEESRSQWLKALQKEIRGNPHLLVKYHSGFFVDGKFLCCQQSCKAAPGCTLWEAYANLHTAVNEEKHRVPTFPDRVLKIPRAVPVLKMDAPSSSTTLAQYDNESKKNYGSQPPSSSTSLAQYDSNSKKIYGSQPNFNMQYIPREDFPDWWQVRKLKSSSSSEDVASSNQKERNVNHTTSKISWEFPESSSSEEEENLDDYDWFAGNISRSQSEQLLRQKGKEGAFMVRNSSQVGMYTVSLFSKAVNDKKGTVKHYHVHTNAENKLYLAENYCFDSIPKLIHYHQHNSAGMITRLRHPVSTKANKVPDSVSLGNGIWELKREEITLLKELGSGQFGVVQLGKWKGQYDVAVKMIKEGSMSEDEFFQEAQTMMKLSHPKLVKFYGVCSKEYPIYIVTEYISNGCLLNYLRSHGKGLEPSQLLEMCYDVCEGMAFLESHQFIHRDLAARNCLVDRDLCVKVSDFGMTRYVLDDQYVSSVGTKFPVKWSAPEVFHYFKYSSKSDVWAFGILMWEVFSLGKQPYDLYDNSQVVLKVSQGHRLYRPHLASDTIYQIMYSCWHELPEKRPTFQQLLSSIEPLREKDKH

EGFR [3] = target: T4, EGFR (Homo sapiens, UniProt P00533); assay: In vitro kinase activity assay (Nanosyn); assay type: biochemical; settings: for IC50: 5 μM ATP
Target sequence in this assay (P00533 25-1210): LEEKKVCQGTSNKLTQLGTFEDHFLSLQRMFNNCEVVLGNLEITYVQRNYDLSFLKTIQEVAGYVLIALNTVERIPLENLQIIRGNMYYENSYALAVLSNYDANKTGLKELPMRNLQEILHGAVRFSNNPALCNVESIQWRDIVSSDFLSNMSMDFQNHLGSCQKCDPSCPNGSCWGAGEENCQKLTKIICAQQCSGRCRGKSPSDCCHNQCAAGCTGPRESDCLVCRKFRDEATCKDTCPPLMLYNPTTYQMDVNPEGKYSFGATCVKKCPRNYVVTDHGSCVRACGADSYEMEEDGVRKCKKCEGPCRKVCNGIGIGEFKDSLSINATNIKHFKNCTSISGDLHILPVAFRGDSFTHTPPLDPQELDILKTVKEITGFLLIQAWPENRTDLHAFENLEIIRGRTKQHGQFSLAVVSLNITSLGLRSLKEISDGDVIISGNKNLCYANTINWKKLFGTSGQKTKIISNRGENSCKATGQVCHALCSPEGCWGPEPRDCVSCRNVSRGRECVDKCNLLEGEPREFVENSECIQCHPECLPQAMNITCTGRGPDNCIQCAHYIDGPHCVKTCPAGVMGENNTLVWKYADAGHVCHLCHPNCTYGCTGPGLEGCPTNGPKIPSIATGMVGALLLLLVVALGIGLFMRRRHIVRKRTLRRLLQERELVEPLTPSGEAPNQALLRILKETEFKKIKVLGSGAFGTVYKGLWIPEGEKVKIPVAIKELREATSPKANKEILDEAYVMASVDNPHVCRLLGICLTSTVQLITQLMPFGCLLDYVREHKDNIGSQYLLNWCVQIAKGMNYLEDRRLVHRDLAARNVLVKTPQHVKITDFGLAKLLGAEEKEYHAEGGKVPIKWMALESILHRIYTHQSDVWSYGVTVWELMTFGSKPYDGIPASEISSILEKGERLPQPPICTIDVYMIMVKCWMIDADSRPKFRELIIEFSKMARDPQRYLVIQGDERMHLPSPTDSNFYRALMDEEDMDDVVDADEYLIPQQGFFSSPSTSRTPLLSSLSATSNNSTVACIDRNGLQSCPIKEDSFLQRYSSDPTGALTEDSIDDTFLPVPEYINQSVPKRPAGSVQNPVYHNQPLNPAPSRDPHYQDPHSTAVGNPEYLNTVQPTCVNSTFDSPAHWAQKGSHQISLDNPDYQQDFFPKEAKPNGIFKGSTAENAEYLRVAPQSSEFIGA

BLK = BLK (Homo sapiens, UniProt P51451); assay: In vitro kinase activity assay (Nanosyn)
EGFR [4] = target: T4, EGFR; assay: Fluorescence intensity measurement of CoLDR turn-on probe; assay type: binding; design: EGFR kinase domain was a generous gift from Prof; Michael Eck; gift from Prof; settings: 2 μM probe, 2 μM protein
Experimental: (§1) A 2 μM concentration of BTK, EGFR, or K-RAS^G12C was added to 2 μM 3k, 4b, or 5a, respectively. […] Each condition was done in triplicates in 20 mM Tris pH 8.0 and 50 mM NaCl for BTK and K-RAS^G12C and in 50 mM Tris pH 8.0 and 100 mM NaCl for EGFR at 32 °C. Fluorescent measurements were taken every 2 min for 2 h for BTK and EGFR and every 10 min for 15 h for K-RAS^G12C. At the end of the measurements, samples were injected directly into the LC/MS for labeling quantification. K-Ras^G12C was expressed and purified as previously described,[69] EGFR kinase domain was a generous gift from Prof. Michael Eck.
Target sequence in this assay (P00533 712-979 limits assumed): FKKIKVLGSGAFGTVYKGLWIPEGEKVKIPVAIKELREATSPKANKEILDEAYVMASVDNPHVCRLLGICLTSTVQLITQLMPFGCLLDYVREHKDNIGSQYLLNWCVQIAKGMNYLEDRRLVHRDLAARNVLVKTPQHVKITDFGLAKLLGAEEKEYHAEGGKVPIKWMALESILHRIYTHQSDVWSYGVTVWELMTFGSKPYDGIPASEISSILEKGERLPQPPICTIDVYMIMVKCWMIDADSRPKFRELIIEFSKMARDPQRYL

BTK [5] = target: T1, BTK; assay: Chemiluminescence emission of probe 3l with BTK; settings: 2 μM probe, 2 μM BTK
Mino cells = assay: In-gel fluorescence activity-based profiling (in situ proteomic labeling); assay type: cell-based; settings: Mino cells treated for 2 h, TAMRA-azide click
Experimental: Mino cells were treated for 2 h with either 0.1% DMSO or the indicated concentrations of IA-alkyne, 2a, 2b, and 2c. The cells were lysed with RIPA buffer (Sigma), and protein concentration was determined using the BCA protein assay (Thermo Fisher Scientific). Lysates were then diluted to 2 mg/mL in PBS and clicked to TAMRA-azide (click chemistry tools). Click reaction was performed using a final concentration of 40 μM TAMRA-azide, 3 mM CuSO4, 3 mM tris(3-hydroxypropyltriazolylmethyl)amine (THPTA, Sigma), and 3.7 mM sodium L-ascorbate (Sigma) in a final volume of 60 μL. The samples were incubated at 25 °C for 2 h. A 20 μL amount of 4× LDS sample buffer (NuPAGE, Thermo Fischer Scientific) was added followed by a 10 min incubation at 70 °C. The samples were then loaded on a 4–20% Bis-Tris gel (SurePAGE, GeneScript) and imaged using a Typhoon FLA 9500 scanner.

[6] = GSH reactivity assay for model compounds (LC/MS); assay type: physicochemical; settings: 100 μM 1i and 5 mM GSH in PBS buffer, pH 8, 37 °C (n = 3)
K-Ras^G12C = K-Ras^G12C (Homo sapiens, UniProt P01116, G12C); assay: Fluorescence intensity measurement of CoLDR turn-on probe; assay type: binding; settings: 2 μM probe, 2 μM protein
Experimental: as §1

BTK [7] = target: T1, BTK; assay: HTS with the chemiluminescent probe 3l (%BTK binding inhibition); settings: 10 μM compound, 0.75 μM BTK
BTK [8] = target: T1, BTK; assay: biochemical; settings: read-out: BTK inhibition (%), 0.75 uM BTK, […] probe 3l, 15 min preincubation
BTK [9] = target: T1, BTK; assay: Fluorescence intensity measurement of CoLDR turn-on probe; assay type: binding; settings: 2 μM probe, 2 μM BTK
BSA = BSA (Bos taurus, UniProt P02769); assay: Turn-on fluorescence selectivity control with BSA; assay type: binding; settings: 10 μM BSA with 2 μM 3k
Text: The fact that a specific leaving group is released as a function of selective binding of a target protein can be used to functionalize irreversible inhibitors, for example as turn-on fluorescent probes. To assess the applicability and generality of this approach, we chose three therapeutic targets for which acrylamide inhibitors are available: BTK, EGFR, and K-RAS^G12C as model systems. Initially, we treated 3k (Figure 6A) with BTK, measured the released coumarin fluorescence, and validated the labeling via LC/MS (Figure 6B,C). […] We could also […] the rate of the reaction by using 20:1 equiv of protein:probe (Figure S16). […] The release can also be inhibited by preincubation of BTK with iodoacetamide alkyne (IAA; Figure S17B).
Figure S17. […] A. 10 μM BSA with 2
B. 2 μM BTK fully labeled with IAA (red) compared to 2 μM non labeled BTK (blue) with 2 μM 3k. The lack of signal for the labeled BTK indicated the fluorescence is triggered by a free cysteine.
(1 picture or pasted object on this page, not shown here)

[10] = BTK IC50, in vitro kinase activity assay
[11] = BTK IC50, rounded, 2 h preincubation, 5 μM ATP

T1 sequence (Q06187 402-655 limits assumed): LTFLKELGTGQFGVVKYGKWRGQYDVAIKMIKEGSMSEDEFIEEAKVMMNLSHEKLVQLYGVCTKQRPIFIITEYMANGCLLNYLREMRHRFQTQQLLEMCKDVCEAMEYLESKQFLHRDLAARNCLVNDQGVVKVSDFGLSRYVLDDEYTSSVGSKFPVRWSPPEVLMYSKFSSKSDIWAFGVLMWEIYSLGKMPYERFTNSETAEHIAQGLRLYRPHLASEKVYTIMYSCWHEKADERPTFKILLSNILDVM
Sequence of ERBB2 (P04626 23-1255, species assumed): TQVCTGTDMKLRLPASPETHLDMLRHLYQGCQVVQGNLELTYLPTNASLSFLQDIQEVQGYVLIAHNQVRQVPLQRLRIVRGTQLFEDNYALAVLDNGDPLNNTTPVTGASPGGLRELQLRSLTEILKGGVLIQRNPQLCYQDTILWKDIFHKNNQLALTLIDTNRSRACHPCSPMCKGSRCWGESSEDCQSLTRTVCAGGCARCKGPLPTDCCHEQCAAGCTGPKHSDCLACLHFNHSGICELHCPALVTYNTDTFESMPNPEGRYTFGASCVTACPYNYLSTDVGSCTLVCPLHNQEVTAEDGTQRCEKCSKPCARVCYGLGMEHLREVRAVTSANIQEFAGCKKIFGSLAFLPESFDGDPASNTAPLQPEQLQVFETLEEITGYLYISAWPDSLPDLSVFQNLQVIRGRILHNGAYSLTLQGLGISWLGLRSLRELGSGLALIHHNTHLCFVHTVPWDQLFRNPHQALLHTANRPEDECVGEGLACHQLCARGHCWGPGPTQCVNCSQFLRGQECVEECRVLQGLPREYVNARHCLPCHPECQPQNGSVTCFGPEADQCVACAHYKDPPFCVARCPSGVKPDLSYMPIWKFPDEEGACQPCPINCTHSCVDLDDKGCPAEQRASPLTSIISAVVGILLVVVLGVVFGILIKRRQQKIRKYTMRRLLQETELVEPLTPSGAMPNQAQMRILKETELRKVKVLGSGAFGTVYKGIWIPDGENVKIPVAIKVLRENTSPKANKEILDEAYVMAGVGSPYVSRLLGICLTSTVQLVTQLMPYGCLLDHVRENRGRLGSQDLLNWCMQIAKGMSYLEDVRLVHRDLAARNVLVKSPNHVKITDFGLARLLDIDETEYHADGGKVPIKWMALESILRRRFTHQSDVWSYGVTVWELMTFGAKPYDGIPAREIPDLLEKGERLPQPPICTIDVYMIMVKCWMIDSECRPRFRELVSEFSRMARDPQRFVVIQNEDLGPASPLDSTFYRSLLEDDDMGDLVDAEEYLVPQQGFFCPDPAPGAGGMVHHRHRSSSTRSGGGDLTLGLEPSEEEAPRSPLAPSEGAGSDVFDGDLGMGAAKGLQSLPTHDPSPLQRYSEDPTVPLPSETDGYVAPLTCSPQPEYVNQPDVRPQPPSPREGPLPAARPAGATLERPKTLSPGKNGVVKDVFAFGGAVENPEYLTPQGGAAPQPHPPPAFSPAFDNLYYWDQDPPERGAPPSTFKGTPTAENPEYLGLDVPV
Sequence of wild-type BTK (Q06187 whole entry): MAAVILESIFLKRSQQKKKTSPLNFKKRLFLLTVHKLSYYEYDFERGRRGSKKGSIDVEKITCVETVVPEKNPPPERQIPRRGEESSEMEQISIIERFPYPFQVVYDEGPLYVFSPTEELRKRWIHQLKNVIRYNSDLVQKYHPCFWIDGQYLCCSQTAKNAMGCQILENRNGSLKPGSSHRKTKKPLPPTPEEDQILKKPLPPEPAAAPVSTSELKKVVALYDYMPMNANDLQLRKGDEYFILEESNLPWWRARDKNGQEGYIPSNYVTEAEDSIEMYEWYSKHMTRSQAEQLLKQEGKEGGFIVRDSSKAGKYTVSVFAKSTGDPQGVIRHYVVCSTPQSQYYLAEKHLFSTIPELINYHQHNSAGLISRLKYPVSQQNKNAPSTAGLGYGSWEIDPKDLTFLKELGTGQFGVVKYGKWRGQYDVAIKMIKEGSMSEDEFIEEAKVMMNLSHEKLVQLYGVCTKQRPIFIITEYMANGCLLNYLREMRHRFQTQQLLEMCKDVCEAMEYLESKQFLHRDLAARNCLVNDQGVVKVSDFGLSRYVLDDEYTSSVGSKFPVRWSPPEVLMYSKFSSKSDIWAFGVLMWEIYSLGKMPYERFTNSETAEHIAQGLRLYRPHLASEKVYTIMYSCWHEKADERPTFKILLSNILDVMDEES
Sequence of BLK (P51451 whole entry, species assumed, the tested form may be a part): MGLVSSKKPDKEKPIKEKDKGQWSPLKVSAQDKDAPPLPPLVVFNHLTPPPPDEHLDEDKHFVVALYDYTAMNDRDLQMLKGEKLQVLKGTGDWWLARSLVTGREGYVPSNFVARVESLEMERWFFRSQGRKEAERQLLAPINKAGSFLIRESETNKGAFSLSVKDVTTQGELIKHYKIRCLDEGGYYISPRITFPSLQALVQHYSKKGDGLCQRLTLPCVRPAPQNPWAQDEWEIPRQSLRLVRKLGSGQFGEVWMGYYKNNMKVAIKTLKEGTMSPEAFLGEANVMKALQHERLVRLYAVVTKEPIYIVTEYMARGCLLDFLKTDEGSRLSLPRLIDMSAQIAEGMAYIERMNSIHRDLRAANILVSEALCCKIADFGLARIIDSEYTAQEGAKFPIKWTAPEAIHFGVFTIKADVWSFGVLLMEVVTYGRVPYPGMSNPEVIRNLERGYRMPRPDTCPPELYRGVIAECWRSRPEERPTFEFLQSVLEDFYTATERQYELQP
Sequence of BSA (P02769 25-607): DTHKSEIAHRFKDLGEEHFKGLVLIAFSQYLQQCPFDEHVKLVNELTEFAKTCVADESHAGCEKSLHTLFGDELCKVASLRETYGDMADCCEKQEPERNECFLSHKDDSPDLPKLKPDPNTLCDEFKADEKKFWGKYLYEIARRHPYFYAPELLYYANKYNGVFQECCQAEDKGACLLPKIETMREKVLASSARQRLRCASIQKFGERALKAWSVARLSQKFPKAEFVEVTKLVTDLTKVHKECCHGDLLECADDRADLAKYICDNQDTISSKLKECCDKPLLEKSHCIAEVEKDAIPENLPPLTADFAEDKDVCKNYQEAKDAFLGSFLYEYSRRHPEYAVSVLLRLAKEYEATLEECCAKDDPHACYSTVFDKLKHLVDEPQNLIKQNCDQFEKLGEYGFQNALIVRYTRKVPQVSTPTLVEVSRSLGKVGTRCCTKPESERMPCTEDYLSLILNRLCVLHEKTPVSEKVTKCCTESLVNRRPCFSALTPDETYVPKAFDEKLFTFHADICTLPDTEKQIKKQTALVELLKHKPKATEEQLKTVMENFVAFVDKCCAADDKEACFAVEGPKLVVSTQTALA
Sequence of BTK kinase domain (Q06187 402-655 limits assumed): as the sequence (Q06187 402-655 limits assumed) above

SMILES: C[C@]12CC[C@H](O)C[C@@]1(O)CC[C@@H]1[C@@H]2CC[C@]2(C)[C@@H](C3=CC(=O)OC3)CC[C@]12O [PCM-0216443]
inhibition at 10 µM (BTK [1]): 6.2%

SMILES: C=C(CNCc1ccccc1)C(=O)N1CCC[C@@H](n2nc(-c3ccc(Oc4ccccc4)cc3)c3c(N)ncnc32)C1 [3e]
IC50 (ERBB2): 13 nM
ERBB2/BTK (ERBB2; selectivity ratio of IC50): 169
BTK labeling mechanism (BTK kinase domain): exclusively through addition with no substitution product
B220+ cells-activated (CD86 positive) (primary mouse B cells): 77.3%
IC50 (ITK): 30 nM
ITK/BTK (ITK; selectivity ratio of IC50): 383
half-life at 100 μM [2]: > 100 h
IC50 (wild-type BTK; [10]): < 0.1 nM
IC50 (wild-type BTK; [11]): 0.1 nM
IC50 (BMX): 0.4 nM
BMX/BTK (BMX; selectivity ratio of IC50): 5
IC50 (EGFR [3]; rounded, 2 h preincubation): 3 nM
EGFR/BTK (EGFR [3]; selectivity ratio of IC50): 36
IC50 (BLK): 0.1 nM
BLK/BTK (BLK; selectivity ratio of IC50): 1

SMILES: C=C(COc1c(/C=C/C(=O)OC)ccc(C2(OC)OOC23C2CC4CC(C2)CC3C4)c1Cl)C(=O)N1CCC[C@@H](n2nc(-c3ccc(Oc4ccccc4)cc3)c3c(N)ncnc32)C1 (some centres unmarked) [3l]
chemiluminescence enhancement by BTK (total photon counts vs probe alone) (BTK [5]): 90 fold
time to maximum chemiluminescence signal (BTK [5]): ≤ 20 min

SMILES: C#CCCNC(=O)C(=C)COc1ccc2ccc(=O)oc2c1 [2a]
in situ proteomic labeling (in-gel fluorescence) (Mino cells): labeled more proteins compared to 2b

SMILES: C=C(CN1CCCCC1)C(=O)N1CCC[C@@H](n2nc(-c3ccc(Oc4ccccc4)cc3)c3c(N)ncnc32)C1 [3c]
IC50 (ERBB2): 33 nM
BTK labeling mechanism (BTK kinase domain): exclusively through addition with no substitution product
B220+ cells-activated (CD86 positive) (primary mouse B cells): 81.6%
IC50 (ITK): 43 nM
IC50 (wild-type BTK; [10]): < 0.1 nM
IC50 (wild-type BTK; [11]): 0.1 nM
IC50 (BMX): 0.3 nM
IC50 (EGFR [3]; rounded, 2 h preincubation): 7 nM
IC50 (BLK): 0.1 nM

SMILES: C=C(COc1ccc2ccc(=O)oc2c1)C(=O)NCc1ccccc1 [1i]
rate of depletion of 1i, k [6]: 0.24 h⁻¹
rate of formation of coumarin, k [6]: 0.24 h⁻¹

SMILES: C#CCCNC(=O)C(=C)CN(C)c1ccccc1 [2c]
in situ proteomic labeling (in-gel fluorescence) (Mino cells): completely inactive

SMILES: C=C(COC(C)=O)C(=O)N1CCC[C@@H](n2nc(-c3ccc(Oc4ccccc4)cc3)c3c(N)ncnc32)C1 [3h]
IC50 (ERBB2): 196 nM
B220+ cells-activated (CD86 positive) (primary mouse B cells): 82.9%
IC50 (ITK): 295 nM
IC50 (wild-type BTK; [10]): < 0.1 nM
IC50 (wild-type BTK; [11]): 0.1 nM
IC50 (BMX): 0.3 nM
IC50 (EGFR [3]; rounded, 2 h preincubation): 28 nM
IC50 (BLK): 0.6 nM

SMILES: C=C(COc1ccc2ccc(=O)oc2c1)C(=O)N1CCN(c2nc(=O)n(-c3c(C)ccnc3C(C)C)c3nc(-c4c(O)cccc4F)c(F)cc23)[C@@H](C)C1 [5a]
released coumarin fluorescence with K-RAS^G12C (K-Ras^G12C): significant increase in fluorescence intensity

SMILES: C=C(CN(C)c1ccccc1)C(=O)N1CCC[C@@H](n2nc(-c3ccc(Oc4ccccc4)cc3)c3c(N)ncnc32)C1 [3d]
half-life at 100 μM [2]: > 100 h
IC50 (wild-type BTK): 5.6 nM

SMILES: CC(C)[C@]12O[C@H]1[C@@H]1O[C@@]13[C@@]1(C)CCC4=C(COC4=O)[C@@H]1C[C@@H]1O[C@@]13C2=O [PCM-0216318]
inhibition at 10 µM (BTK [1]): -26.3%

SMILES: C=C(COc1ccc2ccc(=O)oc2c1)C(=O)N1CCC[C@@H](n2nc(-c3ccc(Oc4ccccc4)cc3)c3c(N)ncnc32)C1 [3k]
IC50 (wild-type BTK; BTK IC50, 0.6 nM BTK, 5 μM ATP, Figure 4C): 1 nM
increase of fluorescence intensity at 435 nm upon addition of BTK (BTK [9]): 30 fold
time to saturation of fluorescence (BTK [9]): ≤ 10 min
turn-on fluorescence with BSA (BSA): no reaction; also recorded: does not result in increased fluorescence

The next lines start with results.

IC50 (EGFR [3]; EGFR kinase activity assay, 0.75 nM EGFR): 3.3 nM
SMILES: C=C(COc1ccc2ccc(=O)oc2c1)C(=O)Nc1cc2c(Nc3ccc(F)c(Cl)c3)ncnc2cc1OC [4b]
released coumarin fluorescence with EGFR (EGFR [4]): significant increase in fluorescence intensity

BTK inhibition (%) (BTK [7]): 125.3%
inhibition at 10 µM (BTK [8]): 125%
SMILES: Cc1cc(-c2ccc(N=Nc3ccc4c(S(=O)(=O)O)cc(S(=O)(=O)O)c(N)c4c3O)c(C)c2)ccc1N=Nc1ccc2c(S(=O)(=O)O)cc(S(=O)(=O)O)c(N)c2c1O [PCM-0214845]

BTK inhibition (%) (BTK [7]): 133.1%
inhibition at 10 µM (BTK [8]): 133%
SMILES: COc1c/c(=C2\C=c3ccccc3=N2)[nH]/c1=C\c1[nH]c(C)cc1C [PCM-0094986]

Reference: publication PMC8041284, “Tunable Methacrylamides for Covalent Ligand Directed Release Chemistry” (Journal of the American Chemical Society, 2021)
